Measurements from article PMC12630027, “RALGEF inhibitors suppress RAS-driven pancreatic cancer and metastasis” (The Journal of Biological Chemistry, 2025).

Tests used:
[1] = biological target: T1, isolated RA domain of RALGDS; test: microscale thermophoresis, one-site model; settings: 50 nM fluorescently labelled RALGDS RA domain, 5% DMSO; average of four experiments; compound solubility may have compromised the assay; read-out: binding affinity
T1 construct: isolated RAS association (RA) domain, C-terminal; fluorescently labelled
Description: microscale thermophoresis, one-site model on isolated RA domain of RALGDS | obtained binding affinities in the low μM range

RGL3 = biological target: T2, RGL3 (Homo sapiens, UniProt Q3MIN7); test: co-immunoprecipitation of H-RAS12V from mixed HEK-293 lysates, Western blot; format: biochemical; settings: 20 μM (figure legend; 10 μM in methods), HA-H-RAS12V partner, pH 7.5, room temperature; inhibition of RAS/RALGEF complex
T2 construct: Flag-tagged, construct purchased from Genscript, expressed in HEK-293, lysate

GFP-tagged RALGDS = biological target: T3, GFP-tagged RALGDS (Homo sapiens, UniProt Q12967); test: as above; format: biochemical; settings: 20 μM (figure legend; 10 μM in methods), HA-H-RAS12V partner, pH 7.5, room temperature; inhibition of RAS/RALGEF complex
T3 construct: full length, GFP-tagged, plasmid gift of CJ Der, expressed in HEK-293, lysate

RGL2 (also known as Rlf) = biological target: T4, RGL2 (also known as Rlf) (Homo sapiens, UniProt O15211); test: as above; format: biochemical; settings: 20 μM (figure legend; 10 μM in methods), HA-H-RAS12V partner, pH 7.5, room temperature; inhibition of RAS/RALGEF complex
T4 construct: full length, GFP-tagged, plasmid gift of CJ Der, expressed in HEK-293, lysate

[2] = biological target: T5, full-length RALGDS recombinant protein (Homo sapiens, UniProt Q12967); test: analytical ultracentrifugation; format: binding
T5 construct: full length, purified recombinant, purchased from Genscript Biotech
T5 sequence (Q12967 1-914): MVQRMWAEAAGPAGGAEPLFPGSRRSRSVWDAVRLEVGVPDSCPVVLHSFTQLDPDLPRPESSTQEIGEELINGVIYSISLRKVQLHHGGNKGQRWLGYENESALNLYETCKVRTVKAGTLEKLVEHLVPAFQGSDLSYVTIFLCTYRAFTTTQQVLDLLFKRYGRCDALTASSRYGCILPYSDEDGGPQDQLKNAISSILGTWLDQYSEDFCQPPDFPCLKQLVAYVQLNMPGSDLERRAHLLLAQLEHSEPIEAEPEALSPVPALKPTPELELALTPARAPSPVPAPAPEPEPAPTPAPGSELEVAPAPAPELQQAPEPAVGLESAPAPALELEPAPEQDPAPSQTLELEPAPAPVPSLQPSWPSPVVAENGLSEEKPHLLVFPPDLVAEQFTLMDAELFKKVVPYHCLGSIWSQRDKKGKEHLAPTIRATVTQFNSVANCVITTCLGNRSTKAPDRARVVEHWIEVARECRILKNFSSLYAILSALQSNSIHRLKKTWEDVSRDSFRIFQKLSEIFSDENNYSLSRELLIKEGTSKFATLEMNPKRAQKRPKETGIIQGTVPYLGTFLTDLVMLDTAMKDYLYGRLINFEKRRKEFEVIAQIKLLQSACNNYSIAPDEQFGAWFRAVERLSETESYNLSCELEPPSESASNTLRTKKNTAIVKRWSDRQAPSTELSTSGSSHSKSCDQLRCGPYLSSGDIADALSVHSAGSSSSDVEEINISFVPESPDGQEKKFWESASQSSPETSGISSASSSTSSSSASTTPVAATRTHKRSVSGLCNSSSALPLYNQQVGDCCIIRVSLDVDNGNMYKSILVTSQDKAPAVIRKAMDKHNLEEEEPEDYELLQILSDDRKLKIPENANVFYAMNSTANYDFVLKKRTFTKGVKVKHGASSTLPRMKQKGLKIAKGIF

Structure (SMILES) | Kd [1] [µM] | co-immunoprecipitation of H-RAS12V from mixed HEK-293 lysates, Western blot (RGL3) | co-immunoprecipitation of H-RAS12V from mixed HEK-293 lysates, Western blot (GFP-tagged RALGDS) | co-immunoprecipitation of H-RAS12V from mixed HEK-293 lysates, Western blot (RGL2 (also known as Rlf)) | Kd [2] [µM]
COc1cccc(CNc2nc(CNCc3cccc(F)c3)nc3sc(C)c(C)c23)c1 [C4-180] | 2.55 | C4-180 could act on RALGDS, RGL2 and RGL3 family members | C4-180 was noticably better at suppressing the interaction of RAS with RALGDS and RGL2 | C4-180 was noticably better at suppressing the interaction of RAS with RALGDS and RGL2 | ~1
COc1cccc(CNc2nc(CN(C)Cc3cccc(OC)c3)nc3sc(C)c(C)c23)c1 [C4] |  |  | The complex formation was suppressed. | The complex formation was suppressed. | 
